Earlier results as cited in patent publication US11523999B2, “Compositions comprising a fatty aged oil mixture and a free fatty acid, and methods and uses thereof” (Pronova Biopharma Norge AS, priority 2009, dated 2022).
Values joined by “and” are separate entries in the source; they are usually repeats but may differ in a detail not shown here. Equal entries are not always repeated.

Conditions: for HBL Value: Other surfactants, Table 7; for HLB Value: Span surfactants, Table 3

Compound | HBL Value | HLB Value
CCCCCCCCCCCCCCCC[N+](C)(C)C.[Br-] [Cetrimonium bromide] | 23.3 | –
CCCCCCCCCCCC(=O)OCCOCCO [Diethylene glycol monolaurate] | 6.1 | –
CCCCCCCCCCCCCCCCCC(=O)OCCOC(=O)CCCCCCCCCCCCCCCCC [Ethylene glycol distearate] | 1.5 | –
CCCCCCCCCCCCCCCCCC(=O)OCC(O)CO (stereo not drawn) [Glyceryl monostearate] | 3.3 and 3.8 | –
CCCCCCCCCCCCOS(=O)(=O)[O-].[Na+] [Sodium lauryl sulphate] | 40 | –
Propylene glycol monostearate | 3.4 | –
sorbitan monooleate [Span ® 80] | – | 4.3
sorbitan monopalmitate [Span ® 40] | – | 6.7
sorbitan monostearate [Span ® 60] | – | 4.7
